Experimental data as given in ChEMBL document CHEMBL4041467, “Synthesis of novel 15-membered 8a-azahomoerythromycin A acylides: Consequences of structural modification at the C-3 and C-6 position on antibacterial activity” (Eur J Med Chem, 2017).
In brackets after ≈: the same amount, converted by molar mass.

How the values were obtained:
Staphylococcus aureus [1] = assay: Antibacterial activity against erythromycin susceptible Staphylococcus aureus infected in mouse assessed as increase in mouse survival administered orally 1 hr post infection; format: functional; details: po
Streptococcus pneumoniae [2] = assay: Antibacterial activity against erythromycin susceptible Streptococcus pneumoniae infected in mouse assessed as increase in mouse survival administered orally 1 hr post infection; format: functional; details: po
[3] = Protein binding in mouse plasma at 1 ug/ml by LC-MS/MS analysis; format: ADME, cell-free; details: read-out: PPB (converted)
[4] = Protein binding in rat plasma at 1 ug/ml by LC-MS/MS analysis; format: ADME, cell-free; details: read-out: PPB (converted)
Plasma [5] = assay: (§1) Protein binding in human plasma at 1 ug/ml by LC-MS/MS analysis; format: ADME, cell-free
[6] = Metabolic stability in mouse liver microsomes assessed as parent compound remaining at 1 uM after 60 mins in presence of NADP by LC-MS/MS analysis; format: ADME, microsome; details: read-out: Stability
[7] = Metabolic stability in rat liver microsomes assessed as parent compound remaining at 1 uM after 60 mins in presence of NADP by LC-MS/MS analysis; format: ADME, microsome; details: read-out: Stability
[8] = Metabolic stability in human liver microsomes assessed as parent compound remaining at 1 uM after 60 mins in presence of NADP by LC-MS/MS analysis; format: ADME, microsome; details: read-out: Stability
Streptococcus pyogenes [9] = assay: Antibacterial activity against constitutively macrolide/lincosamide/streptogramin B-resistant Streptococcus pyogenes by agar microdilution method; format: functional
Streptococcus pneumoniae [10] = assay: Antibacterial activity against constitutively macrolide/lincosamide/streptogramin B-resistant Streptococcus pneumoniae by agar microdilution method; format: functional
Streptococcus pneumoniae [11] = assay: Antibacterial activity against erythromycin susceptible Streptococcus pneumoniae by agar microdilution method; format: functional
Staphylococcus aureus [12] = assay: Antibacterial activity against inducibly macrolide/lincosamide/streptogramin B-resistant Staphylococcus aureus by agar microdilution method; format: functional
Staphylococcus aureus [13] = assay: Antibacterial activity against constitutively macrolide/lincosamide/streptogramin B-resistant Staphylococcus aureus by agar microdilution method; format: functional
Streptococcus pyogenes [14] = assay: Antibacterial activity against erythromycin susceptible Streptococcus pyogenes by agar microdilution method; format: functional
Streptococcus pneumoniae [15] = assay: Antibacterial activity against Mef-mediated macrolide efflux resistant Streptococcus pneumoniae by agar microdilution method; format: functional
Staphylococcus aureus [16] = assay: Antibacterial activity against erythromycin susceptible Staphylococcus aureus by agar microdilution method; format: functional
Streptococcus pyogenes [17] = assay: Antibacterial activity against Mef-mediated macrolide efflux resistant Streptococcus pyogenes by agar microdilution method; format: functional
Haemophilus influenzae = assay: Antibacterial activity against Haemophilus influenzae by agar microdilution method; format: functional
Staphylococcus aureus [18] = assay: Potency index, ratio of clarithromycin ED50 to compound ED50 for erythromycin susceptible Staphylococcus aureus infected in mouse; format: functional
Streptococcus pneumoniae [19] = assay: Potency index, ratio of clarithromycin ED50 to compound ED50 for erythromycin susceptible Streptococcus pneumoniae infected in mouse; format: functional
[20] = Cmax in Han Wistar rat at 10 mg/kg, iv by LC-MS/MS analysis; format: ADME, organism-based; parameters: dose 10 mg/kg, route intravenous; details: in vivo
[21] = AUC(0 to infinity) in Han Wistar rat at 10 mg/kg, iv by LC-MS/MS analysis; format: ADME, organism-based; parameters: dose 10 mg/kg, route intravenous, time infinity; details: in vivo
[22] = Terminal half life in Han Wistar rat at 10 mg/kg, iv by LC-MS/MS analysis; format: ADME, organism-based; details: in vivo, read-out: beta t1/2 (converted)
[23] = Clearance in Han Wistar rat at 10 mg/kg, iv by LC-MS/MS analysis; format: ADME, organism-based; details: in vivo
Rattus norvegicus = assay: Unbound clearance in Han Wistar rat at 10 mg/kg, iv by LC-MS/MS analysis; format: ADME, organism-based; details: in vivo
[24] = Volume of distribution at steady state in Han Wistar rat at 10 mg/kg, iv by LC-MS/MS analysis; format: ADME, organism-based; details: in vivo, read-out: Vdss
[25] = Fraction unbound in Han Wistar rat plasma at 10 mg/kg, iv by LC-MS/MS analysis; format: ADME, organism-based
[26] = Cmax in Han Wistar rat at 20 mg/kg, po by LC-MS/MS analysis; format: ADME, organism-based; parameters: dose 20 mg/kg, route oral; details: in vivo
[27] = Tmax in Han Wistar rat at 20 mg/kg, po by LC-MS/MS analysis; format: ADME, organism-based; details: in vivo
[28] = AUC(0 to infinity) in Han Wistar rat at 20 mg/kg, po by LC-MS/MS analysis; format: ADME, organism-based; parameters: dose 20 mg/kg, time infinity, route oral; details: in vivo
[29] = Oral bioavailability in Han Wistar rat at 20 mg/kg by LC-MS/MS analysis; format: ADME, organism-based; details: in vivo
[30] = AUC(0 to t) in Han Wistar rat at 10 mg/kg, iv by LC-MS/MS analysis; format: ADME, organism-based; details: in vivo
[31] = as §1; format: ADME, cell-free; details: read-out: PPB (converted)
Plasma [32] = assay: Stability in rat plasma at 1 uM up to 120 mins by LC-MS/MS analysis; format: ADME, cell-free; details: 2 h
[33] = AUC(0 to t) in Han Wistar rat at 20 mg/kg, po by LC-MS/MS analysis; format: ADME, organism-based; details: in vivo
Liver [34] = assay: Intrinsic clearance in mouse liver microsomes at 1 uM after 60 mins in presence of NADP by LC-MS/MS analysis; format: ADME, microsome; details: 1 h
Liver [35] = assay: Intrinsic clearance in rat liver microsomes at 1 uM after 60 mins in presence of NADP by LC-MS/MS analysis; format: ADME, microsome; details: 1 h
Liver [36] = assay: Intrinsic clearance in human liver microsomes at 1 uM after 60 mins in presence of NADP by LC-MS/MS analysis; format: ADME, microsome; details: 1 h
[37] = Cmax in Han Wistar rat at 30 mg/kg, po by LC-MS/MS analysis; format: ADME, organism-based; parameters: dose 30 mg/kg, route oral; details: in vivo
[38] = Tmax in Han Wistar rat at 30 mg/kg, po by LC-MS/MS analysis; format: ADME, organism-based; details: in vivo
[39] = AUC(0 to infinity) in Han Wistar rat at 30 mg/kg, po by LC-MS/MS analysis; format: ADME, organism-based; parameters: dose 30 mg/kg, time infinity, route oral; details: in vivo
[40] = Oral bioavailability in Han Wistar rat at 30 mg/kg by LC-MS/MS analysis; format: ADME, organism-based; details: in vivo
Plasma [41] = assay: Drug uptake in Han Wistar rat plasma at 10 mg/kg, iv up to 8 hrs by LC-MS/MS analysis; format: ADME, organism-based; details: in vivo
Plasma [42] = assay: Drug uptake in Han Wistar rat plasma at 30 mg/kg, po up to 4 hrs by LC-MS/MS analysis; format: ADME, organism-based; details: in vivo
[43] = AUC(0 to t) in Han Wistar rat at 30 mg/kg, po by LC-MS/MS analysis; format: ADME, organism-based; details: in vivo
Staphylococcus aureus [44] = assay: Ratio of MIC for inducibly macrolide/lincosamide/streptogramin B-resistant Staphylococcus aureus to MIC for erythromycin susceptible Staphylococcus aureus; format: functional

SMILES	ED50 (Staphylococcus aureus [1])	ED50 (Streptococcus pneumoniae [2])	fraction unbound at 1 ug/ml [3]	fraction unbound at 1 ug/ml [4]	remaining at 1 h, 1 µM [6]	remaining at 1 h, 1 µM [7]	remaining at 1 h, 1 µM [8]	MIC (Streptococcus pyogenes [9])	MIC (Streptococcus pneumoniae [10])	MIC (Streptococcus pneumoniae [11])	MIC (Staphylococcus aureus [12])	MIC (Staphylococcus aureus [13])	MIC (Streptococcus pyogenes [14])	MIC (Streptococcus pneumoniae [15])	MIC (Staphylococcus aureus [16])	MIC (Streptococcus pyogenes [17])	MIC (Haemophilus influenzae)	Cmax [20]	AUC(0-inf) [21]	fraction unbound at 1 ug/ml [31]	other results
CC[C@H]1OC(=O)[C@H](C)[C@@H](O[C@H]2C[C@@](C)(OC)[C@@H](O)[C@H](C)O2)[C@H](C)[C@@H](O[C@@H]2O[C@H](C)C[C@H](N(C)C)[C@H]2O)[C@](C)(OC)C[C@@H](C)C(=O)[C@H](C)[C@@H](O)[C@]1(C)O [CLARITHROMYCIN]	22.4 to 24.8 mg/kg	27.2 to 34.6 mg/kg	0.88	1	100%	92.5%	91%														PPB (Plasma [5]): 11%
CC[C@H]1OC(=O)[C@H](C)[C@@H](OC(=O)CCNCCNc2cc3c(=O)c(C(=O)O)cn(C4CC4)c3cc2Cl)[C@H](C)[C@@H](O[C@@H]2O[C@H](C)C[C@H](N(C)C)[C@H]2O)[C@](C)(OC/C=C/c2cnc3ccccc3c2)C[C@@H](C)NC(=O)[C@H](C)[C@@H](O)[C@]1(C)O	6 mg/kg	4.5 mg/kg	0.3	0.42	100%	100%	100%	4 µg/mL (≈ 3.53 µM)	≤ 0.125 µg/mL	≤ 0.06 µg/mL	0.25 µg/mL (≈ 0.221 µM)	> 64 µg/mL	≤ 0.06 µg/mL	≤ 0.125 µg/mL	≤ 0.125 µg/mL	0.25 µg/mL (≈ 0.221 µM)	1 µg/mL (≈ 0.882 µM)	2480 ng/mL	8510 ng·h/mL	0.4	Ratio ED50 (Staphylococcus aureus [18]): 4; Ratio ED50 (Streptococcus pneumoniae [19]): 6; half-life [22]: 4.3 h; clearance [23]: 20.3 mL/min/kg; CL free (Rattus norvegicus): 48.3 mL/min/kg; Vd [24]: 6.7 L/kg; fraction unbound [25]: 0.42; Cmax [26]: 630 ng/mL; Tmax [27]: 3.3 h; AUC(0-inf) [28]: 7500 ng·h/mL; bioavailability [29]: 41.8%; AUC(0-t) [30]: 4800 to 10000 ng·h/mL; Stability (Plasma [32]): Stable; AUC(0-t) [33]: 2040 to 9730 ng·h/mL; CLH (Liver [34]): < 0.6 mL/min/g; CLH (Liver [35]): < 0.6 mL/min/g; CLH (Liver [36]): < 0.6 mL/min/g
C=CCO[C@]1(C)C[C@@H](C)NC(=O)[C@H](C)[C@@H](O)[C@](C)(O)[C@@H](CC)OC(=O)[C@H](C)[C@@H](OC(=O)CCNCCNc2cc3c(=O)c(C(=O)O)cn(C4CC4)c3cc2Cl)[C@H](C)[C@H]1O[C@@H]1O[C@H](C)C[C@H](N(C)C)[C@H]1O	26.5 mg/kg	46.5 mg/kg	0.45	0.63	100%	100%	99%	4 µg/mL (≈ 3.97 µM)	1 µg/mL (≈ 0.993 µM)	≤ 0.125 µg/mL	0.25 µg/mL (≈ 0.248 µM)	> 64 µg/mL	≤ 0.125 µg/mL		≤ 0.125 µg/mL	0.25 µg/mL (≈ 0.248 µM)	2 µg/mL (≈ 1.99 µM)	3870 ng/mL	4080 ng·h/mL	0.51	half-life [22]: 1.6 h; clearance [23]: 44.7 mL/min/kg; CL free (Rattus norvegicus): 71 mL/min/kg; Vd [24]: 3.2 L/kg; Cmax [37]: 440 ng/mL; fraction unbound [25]: 0.63; Tmax [38]: 0.31 h; AUC(0-inf) [39]: 510 ng·h/mL; bioavailability [40]: 4.9%; Drug uptake (Plasma [41]): Active; Drug uptake (Plasma [42]): Active; AUC(0-t) [30]: 2450 to 5340 ng·h/mL; AUC(0-t) [43]: 50 to 520 ng·h/mL; Stability (Plasma [32]): Stable; CLH (Liver [34]): < 0.6 mL/min/g; CLH (Liver [35]): < 0.6 mL/min/g; CLH (Liver [36]): < 0.6 mL/min/g
CC[C@H]1OC(=O)[C@H](C)[C@@H](O[C@H]2C[C@@](C)(OC)[C@@H](O)[C@H](C)O2)[C@H](C)[C@@H](O[C@@H]2O[C@H](C)C[C@H](N(C)C)[C@H]2O)[C@](C)(O)C[C@@H](C)CN(C)[C@H](C)[C@@H](O)[C@]1(C)O [AZITHROMYCIN]			0.73	0.72	100%	100%	100%	> 64 µg/mL	> 64 µg/mL	≤ 0.125 µg/mL	> 64 µg/mL	> 64 µg/mL	≤ 0.125 µg/mL	4 µg/mL (≈ 5.34 µM)	1 µg/mL (≈ 1.34 µM)	1 µg/mL (≈ 1.34 µM)	1 µg/mL (≈ 1.34 µM)			0.64	Ratio (Staphylococcus aureus [44]): 64
